Experiments:
Format in all cases: in vivo
Psylla pyri = experiment: Field test on pear trees against pear psyllids, kill of L-1 and L-4 nymphs; details: for Activity (% Abbott) Psylla piri L-1: L-1 nymphs; for Activity (% Abbott) Psylla piri L-4: L-4 nymphs
Description: In 4 replications, pear trees of the cultivar “Conference” of a height of about 3 m are treated against pear psyllids, Psylla pyri. Here, the active compound (I-4′) (100 OD) and the commercial standard Amitraz (UL 400) are applied at the stated application rates. The application is carried out using a knapsack sprayer and an application rate of 1000 l of water/ha. The beneficial species Anthocoris nemoralis appears 14 days after the treatment.
Evaluation is carried out 4, 8 and 14 days after the treatment by evaluating the kill of the L-1 nymphs and the L-4 nymphs on the branches.

Eriosoma lanigerum = experiment: Field test on apple trees against woolly apple aphids, kill according to Abbott
Description: In three replications, in each case three about 25-year old apple trees (crown height about 2 m) of the cultivar “Elan” are treated against woolly apple aphids, Eriosoma lanigerum. Here, the active compound (I-4′) (150 OD) and the commercial standard clothianidin (WG 50) are tested comparatively at the stated application rates in the presence of the woolly aphid parasite (beneficial species) Aphelinus mali. The application is carried out using an atomizer at a water application rate of 500 l/ha. Both one and two applications at an interval of 34 days are carried out.
Evaluation is carried out 7, 30, 44, 52, 59, 66 and 73 days after the first treatment by evaluating the kill of the adult pests and the number of parasitic pests in each case 10 colonies according to Abbott.

Bemisia tabaci = Bemisia tabaci test (cotton leaves sprayed, mirid bugs added); details: 0.16 ppm, active compound alone
Description: (§1) To produce a suitable preparation of active compound, 1 part by weight of active compound is mixed with the stated amounts of solvent and emulsifier, and the concentrate is diluted with emulsifier-containing water to the desired concentration.
Cotton leaves (Gossypium hirsutum) infested by the whitefly (Bemisia tabacii) are treated by being sprayed with the preparation of active compound at the desired concentration.
After the desired period of time, a defined amount of mirid bugs (Macrolophus caliginosus) is added.
After the desired period of time, the kill of the pest in % is determined. 100% means that all whiteflies have been killed; 0% means that none of the whiteflies have been killed. The determined kill rates are entered into Colby's formula.

Myzus persicae = Myzus persicae test (cabbage leaves sprayed, ladybird larvae added); details: 4 ppm, active compound alone
Description: as §1
Cabbage leaves (Brassica oleracea) infested by the green peach aphid (Myzus persicae) are treated by being sprayed with the preparation of active compound at the desired concentration.
After the desired period of time, a defined amount of ladybird larvae (Coccinella septempunctata) is added.
After the desired period of time, the kill of the pest in % is determined. 100% means that all aphids have been killed; 0% means that none of the aphids have been killed.
The determined kill rates are entered into Colby's formula.

[1] = 8 d, 400 g/ha/m crown height, UL 400
[2] = 14 d, 400 g/ha/m crown height, UL 400
[3] = 8 d, 75 g/ha/m crown height, 100 OD
[4] = 14 d, 75 g/ha/m crown height, 100 OD

Cc1ccc(/N=C/N(C)/C=N/c2ccc(C)cc2C)c(C)c1 [Amitraz, reference compound]
Activity (% Abbott) Psylla piri L-1 (Psylla pyri; 4 d, 400 g/ha/m crown height, UL 400, pear trees): 23.6 % Abbott | Activity (% Abbott) Psylla piri L-1 (Psylla pyri; [1]): 41.0 % Abbott | Activity (% Abbott) Psylla piri L-1 (Psylla pyri; [2]): 41.8 % Abbott | Activity (% Abbott) Psylla piri L-4 (Psylla pyri; 4 d, 400 g/ha/m crown height, UL 400): 0.0 % Abbott | Activity (% Abbott) Psylla piri L-4 (Psylla pyri; [1]): 44.6 % Abbott | Activity (% Abbott) Psylla piri L-4 (Psylla pyri; [2]): 44.4 % Abbott

CN/C(=N\[N+](=O)[O-])NCc1cnc(Cl)s1 [Clothianidin, clothianidin, reference compound]
Activity (% Abbott) Eriosoma lanigerum (Eriosoma lanigerum; 7 d, 37.5 g/ha/m crown height, WG 50, two treatments, apple trees, Aphelinus mali present): 71 % Abbott | Activity (% Abbott) Eriosoma lanigerum (Eriosoma lanigerum; 30 d, 37.5 g/ha/m crown height, WG 50, two treatments): 76 % Abbott | Activity (% Abbott) Eriosoma lanigerum (Eriosoma lanigerum; 44 d, 37.5 g/ha/m crown height, WG 50, two treatments): 85 % Abbott | Activity (% Abbott) Eriosoma lanigerum (Eriosoma lanigerum; 52 d, 37.5 g/ha/m crown height, WG 50, two treatments): 81.8 % Abbott | Activity (% Abbott) Eriosoma lanigerum (Eriosoma lanigerum; 59 d, 37.5 g/ha/m crown height, WG 50, two treatments): 81.8 % Abbott | Activity (% Abbott) Eriosoma lanigerum (Eriosoma lanigerum; 66 d, 37.5 g/ha/m crown height, WG 50, two treatments): 80 % Abbott | Activity (% Abbott) Eriosoma lanigerum (Eriosoma lanigerum; 73 d, 37.5 g/ha/m crown height, WG 50, two treatments): 80 % Abbott

CCOC(=O)OC1=C(c2cc(C)ccc2C)C(=O)N[C@]12CC[C@@H](OC)CC2 [Ex. I-4′]
Kill in % after 14 d (Bemisia tabaci): 0% | Kill in % after 7 d (Myzus persicae): 10% | Activity (% Abbott) Eriosoma lanigerum (Eriosoma lanigerum; 7 d, 75 g/ha/m crown height, 150 OD, one treatment, apple trees, Aphelinus mali present): 48 % Abbott | Activity (% Abbott) Eriosoma lanigerum (Eriosoma lanigerum; 30 d, 75 g/ha/m crown height, 150 OD, one treatment): 95 % Abbott | Activity (% Abbott) Eriosoma lanigerum (Eriosoma lanigerum; 44 d, 75 g/ha/m crown height, 150 OD, one treatment): 99 % Abbott | Activity (% Abbott) Eriosoma lanigerum (Eriosoma lanigerum; 52 d, 75 g/ha/m crown height, 150 OD, one treatment): 99.4 % Abbott | Activity (% Abbott) Eriosoma lanigerum (Eriosoma lanigerum; 59 d, 75 g/ha/m crown height, 150 OD, one treatment): 98.2 % Abbott | Activity (% Abbott) Eriosoma lanigerum (Eriosoma lanigerum; 66 d, 75 g/ha/m crown height, 150 OD, one treatment): 98 % Abbott | Activity (% Abbott) Eriosoma lanigerum (Eriosoma lanigerum; 73 d, 75 g/ha/m crown height, 150 OD, one treatment): 98 % Abbott | Activity against Eriosoma lanigerum (Eriosoma lanigerum; after two treatments): 100% | Activity (% Abbott) Psylla piri L-1 (Psylla pyri; 4 d, 75 g/ha/m crown height, 100 OD, pear trees): 62.7 % Abbott | Activity (% Abbott) Psylla piri L-1 (Psylla pyri; [3]): 69.5 % Abbott | Activity (% Abbott) Psylla piri L-1 (Psylla pyri; [4]): 76.6 % Abbott | Activity (% Abbott) Psylla piri L-4 (Psylla pyri; 4 d, 75 g/ha/m crown height, 100 OD): 91.4 % Abbott | Activity (% Abbott) Psylla piri L-4 (Psylla pyri; [3]): 98.4 % Abbott | Activity (% Abbott) Psylla piri L-4 (Psylla pyri; [4]): 99.3 % Abbott
